Assay results taken from patent US20220030866A1, “CONJUGATES OF AUXIN ANALOGS” (The State of Israel, Ministry of Agriculture & Rural …, priority 2019, published 2022).

Tests used:
Assay type in all cases: in vivo
[1] = tested on: cuttings from mature Eucalyptus grandis trees; assay: rooting of cuttings from mature Eucalyptus grandis trees; details: for appearance of the roots compared with IBA alone: 6000 ppm IBA with 100 μM compound
In short: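 Cuttings (12-15 cm, two upper leaves halved) from branches of 8-year-old net-house plants; bases dipped 1 min in 6000 ppm IBA potassium salt plus 50 μM conjugate, leaves sprayed with 50 μM conjugate in 0.5% Triton X-100. Rooted at 25° C, 90% humidity, peat:vermiculite:polystyrene 1:2:3; rooting scored after 30-60 days.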

[2] = tested on: avocado rootstock cuttings; assay: rooting of avocado rootstock cuttings; details: vc51 rootstock, IBA with compound
In short: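 Green cuttings of avocado rootstock (including hard-to-root VC801) were treated with auxin conjugates in the presence of IBA and scored for rooting.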

[3] = tested on: Eucalyptus brachyphylla cuttings; assay: rooting of Eucalyptus brachyphylla cuttings; details: for mean root number per cutting, E. brachyphylla: K-IBA alone or with 100 μM compound; for mean root length, E. brachyphylla, relative to IBA alone, in words: K-IBA with 100 μM compound
Description: (§1) In order to investigate cloning of productive eucalyptus trees from cuttings, branches were excised from mature Eucalyptus x trabutii and Eucalyptus brachyphylla trees the field (in Kfar Pines, Israel)—selected based on their exceptional nectar production and honeybee attraction—placed in a humidified cooler box and brought to a climate-controlled greenhouse within 2 hours. Each cutting, 7 cm long, included three nodes with only two leaves remaining at its apical end. Two-thirds of each blade was excised to minimize evapotranspiration. The cutting bases were submerged for 1 minute in 6 grams/liter indole-3-butyric acid potassium salt (K-IBA), optionally supplemented with Compound 1s or 1t at a concentration of 100 μM. In addition, the leaves were sprayed with 100 μM of each compound in the presence of 0.05% Triton X-100 surfactant. Stock solutions of Compounds 1s and 1t were at a concentration of 100 mM in DMSO. The cuttings were planted in rooting medium containing peat, vermiculite and polystyrene flakes at a ratio of 1:2:3 respectively, on a heated rooting table under 90% humidity. Fungicides were applied to the rooting media on a weekly basis. Rooting percentage, number of roots per cutting and root length were measured after 1 and 2 weeks and after 1 and 2 months.

[4] = tested on: Eucalyptus x trabutii cuttings; assay: rooting of Eucalyptus x trabutii cuttings; details: for mean root number per cutting, E. x trabutii: K-IBA alone or with 100 μM compound; for callus formation in E. x trabutii / mean root number and mean root length, E. x trabutii, relative to IBA alone, in words / rooting rate of E. x trabutii compared with IBA alone, in words: K-IBA with 100 μM compound
Description: as §1

[5] = IBA with 100 μM compound, submersion and spraying

SMILES	appearance of the roots compared with IBA alone ([1]; submersion and spraying)	roots per cutting of green avocado branches compared with etiolated branches treated with IBA, in words [2]	rooting success rate of green avocado branches, in words ([2]; compared with IBA alone)	mean root number per cutting, E. brachyphylla [3]	mean root length, E. brachyphylla, relative to IBA alone, in words [3]	mean root number per cutting, E. x trabutii [4]	callus formation in E. x trabutii [4]	mean root number and mean root length, E. x trabutii, relative to IBA alone, in words [4]	rooting rate of E. x trabutii compared with IBA alone, in words [4]	percentage of adventitious root formation (rooting) ([1]; 6000 ppm IBA and 100 μM conjugate by submersion of base plus spraying of foliage) [%]	number of root tips compared with IBA alone (WinRHIZO) [1, 5]	total root length compared with IBA alone (WinRHIZO) [1, 5]
COC(=O)[C@@H](Cc1c[nH]c2ccccc12)NC(=O)COc1ccc(Cl)cc1 [Compound 1s, 4-CPA-D-Trp]	appeared more branched	considerably more roots per cutting	considerably enhanced the rooting success rate	about 2	enhanced mean root length	about 5	no calluses were observed	no apparent effect	considerably higher	–	–	–
COC(=O)[C@H](Cc1c[nH]c2ccccc12)NC(=O)COc1ccc(Cl)cc1 [Compound 1t, 4-CPA-L-Trp]	appeared more branched	–	–	about 2	enhanced mean root length	about 5	no calluses were observed	no apparent effect	considerably higher	51±7	considerably enhanced the number of root tips	considerably enhanced the total root length
